Results taken from PMC4992440 (ACS chemical biology, 2016).
Like-named read-outs stand apart in the source and are kept apart here.

Assays:
[1] = system: IL-10 production in Zymosan A-stimulated BMDCs; assay: IL-10 production by Zymosan A-stimulated BMDCs; type: cell-based, mouse; details: read-out: IL-10 EC50, mean ± SD from ≥ 2 independent experiments
BMDCs = assay: Cellular cytotoxicity in Zymosan A-stimulated BMDCs; type: cell-based, mouse
PBS solubility = type: physicochemical
[2] = system: p-HDAC5 (Ser259) in BMDMs; assay: HDAC5 Ser259 phosphorylation in LPS-stimulated BMDMs; type: cell-based, mouse; details: 1 μM, 6 hr pre-incubation, LPS 30 min
[3] = system: Il10 and Nurr77 transcripts in BMDCs; assay: CREB target gene transcripts in LPS-stimulated BMDCs; type: cell-based, mouse; details: 1 μM, 24 hr pre-treatment
[4] = system: TNFα, IL-6, IL-12p40, IL-1β in BMDCs; assay: Inflammatory cytokine production by Zymosan A-stimulated BMDCs; type: cell-based, mouse; details: 1 μM 24 hr, Zymosan A 18 hr
[5] = Pharmacokinetics after IP administration in mice; type: in vivo; details: mouse
[6] = system: LPS-stimulated C57BL/6 mice; type: in vivo; details: mouse
C57BL/6 mice = assay: Daily dosing for 1 week in mice: weight, serum triglycerides, adiponectin; type: in vivo, mouse; details: wild-type mice, daily for 1 week
[7] = mouse, microsomes
[8] = Mouse liver microsome stability; details: mouse liver microsomes; 1 independent experiment
[9] = Serum / plasma protein binding; type: in vitro ADME, mouse

For `COc1ccc(N2C(=O)N(c3c(C)cccc3Cl)Cc3cnc(Nc4ccc(C5CCN(C)CC5)cc4OC)nc32)nc1` [Compound 5], the EC50 [1] was 0.46 ± 0.11 µM, the “concentrations at which non-toxic” value (BMDCs) was no more than 10 µM and the PBS solubility (PBS solubility) was 428 ± 11 µM. For the same molecule, the “LPS stimulated phosphorylation of HDAC5 at Ser259” value [2] was “reduced”, the Il10 transcript level [3] was “increased” and the Nurr77 transcript level [3] was “increased”. The IL-1β release [4] was “only modestly enhanced”, the IL-6 production [4] was “suppressed” and the IL-12p40 production [4] was “suppressed”. The TNFα production [4] was “suppressed”, the “changes in viability, activity or grooming” value ([5]; IP 20 mg/Kg, 24 hour treatment period) was “no obvious changes” and the “clearance t1/2” value ([5]; IP, 20 mg/Kg, serum) was greater than 7 h. The “LPS-induced increase in Il6 mRNA in colon” value ([6]; IP 20 mg/Kg) was “not affected”, the “serum IL-6 levels” value ([6]; IP 20 mg/Kg, LPS) was “moderately decreased” and the “increase of serum IL-10 levels” value ([6]; IP 20 mg/Kg, LPS 1 hour) was greater than 2 fold. The “Tnf transcript in colon” value ([6]; IP 20 mg/Kg, throughout the experiment) was “reduced”, the “phosphorylation of HDAC5 at Ser259 in total splenic leukocytes” value ([6]; IP 5 – 50 mg/Kg, 15 min before LPS 1 hour) was “dose dependently decreased” and the “abundance of TNFα in serum” value ([6]; IP, beginning at 5 mg/Kg, LPS 1 hour) was “dose-dependently reduced”. For the same molecule, the “phosphorylation of HDAC5 at Ser259 in total splenic leukocytes, immunoblotting” value ([6]; IP, beginning at the 20 mg/Kg dose) was “below the limit of detection”, the “tolerability of daily injections” value (C57BL/6 mice) was “well tolerated” and the “MLM t1/2” value [7] was greater than 2 h.
With `COc1ccc(N2C(=O)N(c3c(C)cccc3Cl)Cc3cnc(Nc4ccc(N5CCN(C)CC5)cc4)nc32)nc1` [Compound 3] the EC50 [1] was 0.011 ± 0.001 µM, the “toxicity in BMDCs (in words)” value (BMDCs) was “significantly elevated toxicity” and the “MLM t1/2” value [8] was 0.45 h.
For `COc1ccc(N(C(=O)Nc2c(C)cccc2C)c2cc(Nc3ccc(N4CCN(C)CC4)cc3)ncn2)c(OC)c1` [Compound 1, reference compound], the EC50 [1] was 0.22 ± 0.09 µM, the serum bound [9] was greater than 99% and the “LPS stimulated phosphorylation of HDAC5 at Ser259” value [2] was “reduces”. The “MLM t1/2” value [8] was 0.183 h.
